Results taken from patent US20050070510A1, “Substituted tetracycline compounds as synergistic antifungal agents” (Paratek Pharmaceuticals, Inc., priority 2001, published 2005).

System: COS-1 cells
Assay: In vitro mammalian cytotoxicity assay (Resazurin)

Row | SMILES | In Vitro Cytotoxicity
1 | CN(C)c1cc(-c2ccc(Cl)c(Cl)c2)c(O)c2c1C[C@@]1(N)C[C@@]3(N)[C@H](N(C)C)C(O)=C(C(N)=O)C(=O)[C@@]3(C#N)C(O)=C1C2=O [EV] | ** (toxicities less than 25 μg/mL are represented by **)
2 | CN(C)[C@@H]1C(O)=C(C(N)=O)C(=O)[C@@]2(C#N)C(O)=C3C(=O)c4c(ccc(NC(=O)OCC(C)(C)C)c4O)[C@H](N)[C@@]3(N)[C@H](O)[C@@]12N [BI] | ** (toxicities less than 25 μg/mL are represented by **)
3 | CN(C)[C@@H]1C(O)=C(C(N)=O)C(=O)[C@@]2(C#N)C(O)=C3C(=O)c4c(O)ccc(-c5ccc(NC(=O)Nc6ccc(OC(F)(F)F)cc6)cc5)c4C[C@@]3(N)C[C@@]12N [PH] | * (toxicities greater than >25 μg/ml are represented by *)
4 | CN(C)[C@@H]1C(O)=C(C(N)=O)C(=O)[C@@]2(C#N)C(O)=C3C(=O)c4c(ccc(-c5cccc(C(N)=O)c5)c4O)[C@H](N)[C@@]3(N)[C@H](O)[C@@]12N [PP] | ** (toxicities less than 25 μg/mL are represented by **)
5 | CCC(NCc1cc(N(C)C)c2c(c1O)C(=O)C1=C(O)[C@]3(C#N)C(=O)C(C(N)=O)=C(O)[C@@H](N(C)C)[C@]3(N)C[C@]1(N)C2)C(F)(F)F (some centres unmarked) [UM] | ** (toxicities less than 25 μg/mL are represented by **)
6 | CN(C)c1cc(NC(=O)Nc2cccc3ccccc23)c(O)c2c1C[C@@]1(N)C[C@@]3(N)[C@H](N(C)C)C(O)=C(C(N)=O)C(=O)[C@@]3(C#N)C(O)=C1C2=O [IA] | * (toxicities greater than >25 μg/ml are represented by *)
7 | CCCCN(c1ccc2c(c1O)C(=O)C1=C(O)[C@]3(C#N)C(=O)C(C(N)=O)=C(O)[C@@H](N(C)C)[C@]3(N)[C@@H](O)[C@]1(N)[C@H]2N)C1CCN(C)CC1 [RX] | * (toxicities greater than >25 μg/ml are represented by *)
8 | CN(C)[C@@H]1C(O)=C(C(N)=O)C(=O)[C@@]2(C#N)C(O)=C3C(=O)c4c(O)ccc(C#Cc5ccccc5)c4C[C@@]3(N)C[C@@]12N [FB] | ** (toxicities less than 25 μg/mL are represented by **)
9 | CN(C)[C@@H]1C(O)=C(C(N)=O)C(=O)[C@@]2(C#N)C(O)=C3C(=O)c4c(ccc(CNCC(C)(C)C)c4O)[C@H](N)[C@@]3(N)[C@H](O)[C@@]12N [RP] | * (toxicities greater than >25 μg/ml are represented by *)
10 | CN(C)[C@@H]1C(O)=C(C(N)=O)C(=O)[C@@]2(C#N)C(O)=C3C(=O)c4c(O)ccc(-c5ccccc5)c4C[C@@]3(N)C[C@@]12N [LK] | ** (toxicities less than 25 μg/mL are represented by **)
11 | COc1ccc2c(c1)cc1c3c(c(O)ccc32)C(=O)C2=C(O)[C@]3(C#N)C(=O)C(C(N)=O)=C(O)[C@@H](N(C)C)[C@]3(N)C[C@@]21N [OL] | ** (toxicities less than 25 μg/mL are represented by **)
12 | CSc1ccc(OC(=O)Nc2cc(N(C)C)c3c(c2O)C(=O)C2=C(O)[C@]4(C#N)C(=O)C(C(N)=O)=C(O)[C@@H](N(C)C)[C@]4(N)C[C@]2(N)C3)cc1 [KR] | * (toxicities greater than >25 μg/ml are represented by *)
13 | CCCN(CCC)Cc1ccc(-c2ccc(O)c3c2C[C@@]2(N)C[C@@]4(N)[C@H](N(C)C)C(O)=C(C(N)=O)C(=O)[C@@]4(C#N)C(O)=C2C3=O)c2ccccc12 [OP] | ** (toxicities less than 25 μg/mL are represented by **)
14 | CC(=O)c1cc(F)c(O)c2c1C[C@@]1(N)C[C@@]3(N)[C@H](N(C)C)C(O)=C(C(N)=O)C(=O)[C@@]3(C#N)C(O)=C1C2=O [SB] | * (toxicities greater than >25 μg/ml are represented by *)
15 | CCCNCc1ccc(OC)c(-c2ccc(O)c3c2C[C@@]2(N)C[C@@]4(N)[C@H](N(C)C)C(O)=C(C(N)=O)C(=O)[C@@]4(C#N)C(O)=C2C3=O)c1 [LV] | * (toxicities greater than >25 μg/ml are represented by *)
16 | CCOC(=O)C(C)(/N=N/c1ccc2c(c1O)C(=O)C1=C(O)[C@]3(C#N)C(=O)C(C(N)=O)=C(O)[C@@H](N(C)C)[C@]3(N)[C@@H](O)[C@]1(N)[C@H]2N)C(=O)OCC [DK] | ** (toxicities less than 25 μg/mL are represented by **)
17 | CN(C)c1cc(NCC2CCCCC2)c(O)c2c1C[C@@]1(N)C[C@@]3(N)[C@H](N(C)C)C(O)=C(C(N)=O)C(=O)[C@@]3(C#N)C(O)=C1C2=O [MR] | ** (toxicities less than 25 μg/mL are represented by **)
18 | CC(C)COC(=O)Nc1ccc(-c2ccc(O)c3c2C[C@@]2(N)C[C@@]4(N)[C@H](N(C)C)C(O)=C(C(N)=O)C(=O)[C@@]4(C#N)C(O)=C2C3=O)cc1 [OD] | ** (toxicities less than 25 μg/mL are represented by **)
19 | COc1ccc(CNc2cc(N(C)C)c3c(c2O)C(=O)C2=C(O)[C@]4(C#N)C(=O)C(C(N)=O)=C(O)[C@@](N)(N(C)C)[C@]4(N)C[C@]2(N)C3)cc1O [TW] | * (toxicities greater than >25 μg/ml are represented by *)
20 | CN(C)c1cc(-c2ccc(CN3CCN(CCO)CC3)o2)c(O)c2c1C[C@H]1C[C@H]3[C@H](N(C)C)C(O)=C(C(N)=O)C(=O)[C@@]3(O)C(O)=C1C2=O [Compound UC, 2-[4-(5-Minocyclin-9-yl-furan-2-ylmethyl)-piperazin-1-yl]-ethanol] | * (toxicities greater than >25 μg/ml are represented by *)
21 | CN(C)[C@@H]1C(O)=C(C(N)=O)C(=O)[C@@]2(C#N)C(O)=C3C(=O)c4c(ccc(N5CCCCC5)c4O)[C@H](N)[C@@]3(N)[C@H](O)[C@@]12N [SA] | * (toxicities greater than >25 μg/ml are represented by *)
22 | CCc1cc(CNC(=O)c2cccnc2)c(O)c2c1C[C@@]1(N)C[C@@]3(N)[C@H](N(C)C)C(O)=C(C(N)=O)C(=O)[C@@]3(C#N)C(O)=C1C2=O [IY] | * (toxicities greater than >25 μg/ml are represented by *)
23 | CC(C)NCc1ccc(-c2ccc(O)c3c2C[C@@]2(N)C[C@@]4(N)[C@H](N(C)C)C(O)=C(C(N)=O)C(=O)[C@@]4(C#N)C(O)=C2C3=O)cc1 [OT] | * (toxicities greater than >25 μg/ml are represented by *)
24 | CN(C)[C@@H]1C(O)=C(C(N)=O)C(=O)[C@@]2(C#N)C(O)=C3C(=O)c4c(O)ccc(C#CCc5ccccc5)c4C[C@@]3(N)C[C@@]12N [GZ] | ** (toxicities less than 25 μg/mL are represented by **)
25 | CN(C)[C@@H]1C(O)=C(C(N)=O)C(=O)[C@@]2(C#N)C(O)=C3C(=O)c4c(ccc(NC5CCCC5)c4O)[C@H](N)[C@@]3(N)[C@H]([S+](N)[O-])[C@@]12N (some centres unmarked) [CA] | ** (toxicities less than 25 μg/mL are represented by **)
26 | CN(C)[C@@H]1C(O)=C(C(N)=O)C(=O)[C@@]2(C#N)C(O)=C3C(=O)c4c(O)cccc4[C@H](CSCc4ccccc4)[C@@]3(N)[C@H](O)[C@@]12N [DH] | ** (toxicities less than 25 μg/mL are represented by **)
27 | COc1cccc(C#Cc2ccc(O)c3c2C[C@@]2(N)C[C@@]4(N)[C@H](N(C)C)C(O)=C(C(N)=O)C(=O)[C@@]4(C#N)C(O)=C2C3=O)c1 [GU] | ** (toxicities less than 25 μg/mL are represented by **)
28 | COc1ccc(-c2ccc(O)c3c2C[C@@]2(N)C[C@@]4(N)[C@H](N(C)C)C(O)=C(C(N)=O)C(=O)[C@@]4(C#N)C(O)=C2C3=O)c(OC)c1OC [RT] | ** (toxicities less than 25 μg/mL are represented by **)
29 | CN(C)[C@@H]1C(O)=C(C(N)=O)C(=O)[C@@]2(C#N)C(O)=C3C(=O)c4c(O)ccc(C5C=CCC5)c4C[C@@]3(N)C[C@@]12N (some centres unmarked) [FD] | ** (toxicities less than 25 μg/mL are represented by **)
